Results from patent US9598398B2, “Heterocyclic compound” (TAKEDA PHARMACEUTICAL COMPANY LIMITED, priority 2013, dated 2017).

Each compound was assayed on 24-HC in the brain extract (assay: Quantification test of 24-HC in mouse brain after repeated oral administration). Settings: 10 mg/kg orally once a day for 3 days, female C57BL/6N mice; brain 24-HC at 16 hours after the third administration; relative to control group as 100%.
Format: in vivo
Method: Animals used were 6-week-old female C57BL/6N mice (3 mice/group). A test compound was suspended in a 0.5% aqueous methylcellulose [133-14255 WAKO] solution (1 mg/mL). The body weight of the mice was measured, and the solution was forcibly administered orally and repeatedly once a day for 3 days. At 16 hours after the third administration, half of the brain was harvested, and the amount of 24-HC was measured.
The wet weight of the brain was measured, and the brain was homogenized with 4-fold amount of saline. This solution was used as a brain extract. The 24-HC in the brain extract was extracted with an acetonitrile solution (98% acetonitrile, 1.98% methanol, 0.02% formic acid), and quantified by HPLC. The average value of 24-HC amount was calculated and the results are shown in relative values with the control group as 100%.

SMILES	Brain 24-HC level relative to control (%)
Cn1cc(CN2CCC(Oc3nccnc3-c3ccncc3)CC2)cn1 [Example 40, 2-((1-((1-methyl-1H-pyrazol-4-yl)methyl)piperidin-4-yl)oxy)-3-(pyridin-4-yl)pyrazine]	84
CN(C)C(=O)CN1CCC(Oc2nccnc2-c2ccncc2)C(F)(F)C1 (stereo not shown) [Example 54, 2-(3,3-difluoro-4-((3-(pyridin-4-yl)pyrazin-2-yl)oxy)piperidin-1-yl)-N,N-dimethylacetamide]	73
c1cnc(-c2ccncc2)c(OC2CCN(Cc3cscn3)CC2)c1 [Example 47, 3-((1-(1,3-thiazol-4-ylmethyl)piperidin-4-yl)oxy)-2,4′-bipyridine]	75

Same assay, conditions: 30 mg/kg orally once a day for 3 days, female C57BL/6N mice; brain 24-HC at 16 hours after the third administration; relative to control group as 100%

SMILES	Brain 24-HC level relative to control (%)
Cn1cc(CN2CCC(Oc3cccnc3-c3ccncc3)CC2)cn1 [Example 22, 3-((1-((1-methyl-1H-pyrazol-4-yl)methyl)piperidin-4-yl)oxy)-2,4′-bipyridine]	77
Cn1cc(S(=O)(=O)N2CCC(Oc3cccnc3-c3ccncc3)C2)cn1 (stereo not shown) [Example 71, 3-((1-((1-methyl-1H-pyrazol-4-yl)sulfonyl)pyrrolidin-3-yl)oxy)-2,4′-bipyridine]	86

What follows are compounds tested against T1, human CH24H (Homo sapiens, UniProt Q9Y6A2) (assay: Measurement of CH24H inhibitory activity (24-HC produced from [14C] cholesterol by human CH24H lysate)). Settings: test compound 1 μM, [14C] cholesterol 15 μM, 37° C., 5 hr, read-out: Inhibitory Rate in 1 μM (%).
T1 construct: Using Full-Length Mammalian Gene Collection No. 4819975 (Invitrogen) as a template; made in house; host or cells: FreeStyle 293-F cells, transient transfection with pcDNA3.1(+)/hCH24H; crude lysate supernatant
Format: biochemical
Method: A plasmid DNA for expressing human CH24H in a FreeStyle 293 cell was produced as follows. Using Full-Length Mammalian Gene Collection No. 4819975 (Invitrogen) as a template, and the following two kinds of synthesized DNAs:
PCR was performed to amplify 91-1625 bp region of human CH24H (BCO22539). The obtained fragment was cloned using TOPO TA Cloning Kit (Invitrogen). The obtained fragment was subcloned to pcDNA3.1(+) digested with BamHI and XhoI to give a plasmid DNA for human CH24H expression (pcDNA3.1(+)/hCH24H).
The expression of human CH24H was performed using FreeStyle 293 Expression System (Invitrogen). According to the manual attached to FreeStyle 293 Expression System and using the plasmid DNA for human CH24H expression (pcDNA3.1(+)/hCH24H) constructed in Experimental Example 1, a transient expression using FreeStyle 293-F cell was performed. After transfection, the cells were cultured at 37° C., 8% CO2 with shaking at 125 rpm for 2 days. The cells were collected by centrifugation, and suspended in a suspension buffer (100 mM potassium phosphate (pH 7.4), 0.1 mM EDTA, 1 mM DTT, 20% Glycerol). The suspended product was disrupted by a polytron homogenizer (manufactured by Kinematica), and centrifuged at 9000×g for 10 min, and the supernatant was collected. The collected supernatant was cryopreserved (−80° C.) as a human CH24H lysate standard product.
For the measurement of CH24H inhibitory activity, using the human CH24H lysate prepared in Experimental Example 2, the amount of 24-HC produced from cholesterol by catalytic activity of CH24H was measured in the presence of a test compound, and compared with that measured in the absence of the test compound. That is, a test compound solution at various concentrations was mixed with a reaction buffer (50 mM potassium phosphate containing 0.1% BSA and Complete, EDTA-free, pH 7.4) and human CH24H lysate. Then, [^14C] cholesterol (53 mCi/mmol specific activity, 15 μM) was added, and CH24H reaction was performed at 37° C. for 5 hr. After completion of the reaction, a quenching solution consisting of chloroform/methanol/distilled water (2:2:1 v/v) was added, and the resulting 24-HC was extracted by shaking. The extract was applied to silica gel thin layer chromatography (ethyl acetate:toluene=4:6), and the obtained ^14C-24HC fraction was measured with BAS2500 (Fujifilm Corporation).
The inhibitory rate (%) was calculated from the ratio of radioactivity in the presence of a test compound relative to the radioactivity in the absence of the test compound.

T1 sequence (Q9Y6A2 whole entry): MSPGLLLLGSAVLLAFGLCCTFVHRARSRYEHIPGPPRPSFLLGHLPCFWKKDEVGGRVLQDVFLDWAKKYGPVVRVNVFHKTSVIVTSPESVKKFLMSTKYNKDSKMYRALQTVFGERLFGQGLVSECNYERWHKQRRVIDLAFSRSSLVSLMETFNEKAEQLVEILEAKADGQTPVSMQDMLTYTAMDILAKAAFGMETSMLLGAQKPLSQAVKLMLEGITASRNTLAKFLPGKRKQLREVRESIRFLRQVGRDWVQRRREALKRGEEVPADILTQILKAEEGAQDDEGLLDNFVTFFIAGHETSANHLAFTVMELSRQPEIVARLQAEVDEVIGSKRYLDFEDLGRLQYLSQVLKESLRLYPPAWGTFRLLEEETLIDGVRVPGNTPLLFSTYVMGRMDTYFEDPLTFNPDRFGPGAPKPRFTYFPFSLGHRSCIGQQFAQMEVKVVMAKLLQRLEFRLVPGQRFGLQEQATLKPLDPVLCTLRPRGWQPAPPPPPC

SMILES	inhibition at 1 µM [%]
COc1ccc(CN2CCN(C(=O)c3cc(C)ccc3-c3ccncc3)CC2)cc1 [Example 3, (4-(4-methoxybenzyl)piperazin-1-yl)(5-methyl-2-(pyridin-4-yl)phenyl)methanone]	87
Cn1ccnc1CN1CCC(Oc2ccccc2-c2ccncc2)CC1 [Example 16, 4-(2-((1-((1-methyl-1H-imidazol-2-yl)methyl)piperidin-4-yl)oxy)phenyl)pyridine]	93
COc1ccc(S(=O)(=O)N2CCC(Oc3cccnc3-c3ccncc3)C2)cc1 (stereo not shown) [Example 64, 3-((1-((4-methoxyphenyl)sulfonyl)pyrrolidin-3-yl)oxy)-2,4′-bipyridine]	92
c1ccc(CN2CCC(Oc3cccnc3-c3ccncc3)CC2)nc1 [Example 124, 3-((1-(pyridin-2-ylmethyl)piperidin-4-yl)oxy)-2,4′-bipyridine]	95
CCN(CC)C(=O)CN1CCC(Oc2cccnc2-c2ccncc2)CC1 [Example 49, 2-(4-(2,4′-bipyridin-3-yloxy)piperidin-1-yl)-N,N-diethylacetamide]	85
O=S(=O)(N1CCOCC1)N1CCC(Oc2cccnc2-c2ccncc2)C1 (stereo not shown) [Example 85, 3-((1-(morpholin-4-ylsulfonyl)pyrrolidin-3-yl)oxy)-2,4′-bipyridine]	84
Cn1cc(CN2CCC(Oc3cccnc3-c3ccncc3)CC2)cn1 [Example 22, 3-((1-((1-methyl-1H-pyrazol-4-yl)methyl)piperidin-4-yl)oxy)-2,4′-bipyridine]	89
O=S(=O)(c1ccccc1)N1CCC(Oc2cccnc2-c2ccncc2)C1 (stereo not shown) [Example 120, 3-((1-(phenylsulfonyl)pyrrolidin-3-yl)oxy)-2,4′-bipyridine]	94
O=C(CN1CCC(Oc2cccnc2-c2ccncc2)CC1)N1CCOCC1 [Example 38, 2-(4-(2,4′-bipyridin-3-yloxy)piperidin-1-yl)-1-(morpholin-4-yl)ethanone]	84
c1ccc(CN2CCC(Oc3cccnc3-c3ccncc3)CC2)cc1 [Example 4, 3-((1-benzylpiperidin-4-yl)oxy)-2,4′-bipyridine]	86
CCS(=O)(=O)N1CCC(Oc2cc(F)ccc2-c2ccncc2)C1 (stereo not shown) [Example 88, 4-(2-((1-(ethylsulfonyl)pyrrolidin-3-yl)oxy)-4-fluorophenyl)pyridine]	82
O=C1CN(Cc2ccc(F)cc2)CCN1Cc1cccnc1-c1ccncc1 [Example 55, 1-(2,4′-bipyridin-3-ylmethyl)-4-(4-fluorobenzyl)piperazin-2-one]	53
COc1ccc(CN2CCN(S(=O)(=O)c3ccc(F)cc3-c3ccncc3)CC2)cc1 [Example 29, 1-((4-fluoro-2-(pyridin-4-yl)phenyl)sulfonyl)-4-(4-methoxybenzyl)piperazine]	59

Second part, the compound after the results:

inhibition at 1 µM [%]	SMILES
80	O=C(C1CC1)N1CCC(Oc2cccnc2-c2ccncc2)CC1 [Example 67, (4-(2,4′-bipyridin-3-yloxy)piperidin-1-yl)(cyclopropyl)methanone]
92	Fc1ccc(OC2CCN(Cc3ccccc3)CC2)c(-c2ccncc2)c1 [Example 5, 4-(2-((1-benzylpiperidin-4-yl)oxy)-5-fluorophenyl)pyridine]
88	Cn1cc(CN2CCC(Oc3nccnc3-c3ccncc3)CC2)cn1 [Example 40, 2-((1-((1-methyl-1H-pyrazol-4-yl)methyl)piperidin-4-yl)oxy)-3-(pyridin-4-yl)pyrazine]
83	CN(C)C(=O)CN1CCC(Oc2ccccc2-c2ccncc2)CC1 [Example 20, N,N-dimethyl-2-(4-(2-(pyridin-4-yl)phenoxy)piperidin-1-yl)acetamide]
87	Cn1cc(S(=O)(=O)N2CCC(Oc3cc(F)ccc3-c3ccncn3)C2)cn1 (stereo not shown) [Example 84, 4-(4-fluoro-2-((1-((1-methyl-1H-pyrazol-4-yl)sulfonyl)pyrrolidin-3-yl)oxy)phenyl)pyrimidine]
89	c1ccc(CN2CCC(Oc3cccnc3-c3ccncc3)C2)cc1 (stereo not shown) [Example 61, 3-((1-benzylpyrrolidin-3-yl)oxy)-2,4′-bipyridine]
91	FC1(F)CN(Cc2ccccc2)CCC1Oc1ccccc1-c1ccncn1 (stereo not shown) [Example 34, 4-(2-((1-benzyl-3,3-difluoropiperidin-4-yl)oxy)phenyl)pyrimidine]
88	COc1ccc(CC(=O)N2CCC(Oc3ccccc3-c3ccncn3)CC2)cc1 [Example 74, 2-(4-methoxyphenyl)-1-(4-(2-(pyrimidin-4-yl)phenoxy)piperidin-1-yl)ethanone]
79	CN(C)C(=O)CN1CCC(Oc2nccnc2-c2ccncc2)C(F)(F)C1 (stereo not shown) [Example 54, 2-(3,3-difluoro-4-((3-(pyridin-4-yl)pyrazin-2-yl)oxy)piperidin-1-yl)-N,N-dimethylacetamide]
89	O=S(=O)(c1ccc(F)cc1)N1CCC(Oc2nccnc2-c2ccncc2)C1 (stereo not shown) [Example 110, 2-((1-((4-fluorophenyl)sulfonyl)pyrrolidin-3-yl)oxy)-3-(pyridin-4-yl)pyrazine]
90	c1cnc(-c2ccncc2)c(OC2CCN(Cc3cscn3)CC2)c1 [Example 47, 3-((1-(1,3-thiazol-4-ylmethyl)piperidin-4-yl)oxy)-2,4′-bipyridine]
94	c1ccc(CN2CCC(Oc3ccccc3-c3ccncn3)CC2)cc1 [Example 15, 4-(2-((1-benzylpiperidin-4-yl)oxy)phenyl)pyrimidine]
89	Cn1cc(S(=O)(=O)N2CCC(Oc3cccnc3-c3ccncc3)C2)cn1 (stereo not shown) [Example 71, 3-((1-((1-methyl-1H-pyrazol-4-yl)sulfonyl)pyrrolidin-3-yl)oxy)-2,4′-bipyridine]
